Measured values reported in patent CN110693875A, “一种预防或治疗性功能障碍的药物组合物及其用途” (Chengdu Baiyu Pharmaceutical Co Ltd, priority 2018, dated 2020).

Tests used:
[1] = tested on: vascular ED rabbit model (血管性ED家兔模型); experiment: Test example 1: mating test in vascular ED rabbits; format: in vivo, New Zealand white rabbit; conditions: alprostadil alone, intracavernosal; for sexual activity parameters overall vs model group: once daily 1 week
[2] = tested on: aged rat ED model (老年性大鼠ED模型); experiment: Test example 2: apomorphine-induced erection and electrically evoked erection in aged rats; format: in vivo, SD rat; conditions: alprostadil alone, intracavernosal, 14 days
[3] = tested on: neurogenic ED rat model (神经性ED大鼠模型); experiment: Test example 3: mating behaviour in rats with cavernous nerve injury; format: in vivo, SD rat; conditions: alprostadil alone, intracavernosal, 14 days
ED patient (ED) = experiment: Clinical observation 1: ED patient, hypertension; format: in vivo, human; conditions: oral sildenafil 3 months, before the combination
[4] = tested on: patient with erectile dysfunction (勃起功能障碍); experiment: Clinical observation 2: patient with erectile dysfunction and premature ejaculation; format: in vivo, human; conditions: oral sildenafil 3 months, before the combination

SMILES	observed parameters vs control group ([1]; high dose 5μg/kg)	sexual activity parameters overall vs model group ([1]; high dose 5μg/kg)	sexual activity parameters overall vs model group ([1]; low dose 0.05μg/kg)	sexual activity parameters overall vs model group ([2]; high dose 10μg/kg)	sexual activity parameters overall vs model group ([2]; low dose, printed 0.02μg/kg)	sexual activity parameters overall vs model group ([3]; high dose 10μg/kg)	sexual activity parameters overall vs model group ([3]; low dose 0.1μg/kg)	attempted intercourse with sufficient sexual stimulation (ED patient (ED))	IIEF-5 score after sildenafil (ED patient (ED); baseline 4)	intercourse satisfaction [4]	overall satisfaction [4]	IIEF-5 score after sildenafil ([4]; baseline 12)
CCCCC[C@H](O)/C=C/[C@H]1[C@H](O)CC(=O)[C@@H]1CCCCCCC(=O)O [前列地尔, (1R,2R,3R)-3-羟基2-[(E)-(3S)-3-羟基-1-辛烯基]-5-氧代环戊烷庚酸]	趋向于对照组	总体优于模型组	总体优于模型组	总体优于模型组	总体优于模型组	总体优于模型组	总体优于模型组	–	–	–	–	–
CCCc1nn(C)c2c(=O)[nH]c(-c3cc(S(=O)(=O)N4CCN(C)CC4)ccc3OCC)nc12 [西地那非]	–	–	–	–	–	–	–	尝试性交失败	5	未得到提高	略有下降	12
